Results from patent EP4417202A1, “ANTI-CANCER ACTION OF BAG1-SELECTIVE IMIDAZOPYRIDINE COMPOUNDS IN STEROID HORMONE RECEPTOR-POSITIVE BREAST AND PROSTATE CANCER” (Karlsruher Institut für Technologie, priority 2023, dated 2024).

Tests used:
T47D = test: Clonogenic assay (clonal expansion); assay type: cell-based; details: Homo sapiens; Breast Cancer (T47D), ER+; inhibition of clonal expansion
Description: (§1) Cells were seeded at a density of 1-2×10^3 cells/well in a 6 well plate in RPMI 1640 supplemented with 10% FBS, penicillin (100 u/ml), streptomycin (100 u/ml), and L-glutamine (2 mM). Cells were treated with increasing concentrations of X15695 and cultured for 14 to 21 days. Medium and compounds were exchanged after 7 days. Cells were fixed with methanol/ acetic acid mixture (3:1 v/v) and the formation of colonies was visualized using 0.5% crystal violet (w/v) in 20% methanol (v/v). Plates were scanned in a conventional office scanner (Epson). The area covered by colonies was calculated using the ColonyArea Plugin for ImageJ.

MCF-7 = test: Clonogenic assay (clonal expansion); assay type: cell-based; details: Breast Cancer (MCF-7), ER+, inhibition of clonal expansion
Description: as §1

22Rv.1 = test: Clonogenic assay (clonal expansion); assay type: cell-based; details: Prostate Cancer (22Rv.1), AR+, inhibition of clonal expansion
Description: as §1

ZR75-1 = test: Clonogenic assay (clonal expansion); assay type: cell-based; details: Breast Cancer (ZR75-1), ER+, inhibition of clonal expansion
Description: as §1

LNCaP = test: Clonogenic assay (clonal expansion); assay type: cell-based; details: Prostate Cancer (LNCaP), AR+, inhibition of clonal expansion
Description: as §1

TRMCF-7 cells = test: Clonogenic assay (clonal expansion); assay type: cell-based
Description: as §1

[1] = system: TRMCF-7 cells (tamoxifen resistant MCF-7 cells); test: MTT cell viability assay; assay type: cell-based; details: 48 h
Description: […] Cells transfected with siRNA were incubated for 72 h after X15695 addition. Thereafter, the medium was exchanged for a fresh medium containing 0.5 mg/ml MTT (Sigma-Aldrich) and incubated at 37°C for 1 h to 4 h (depending on cell line) until intracellular purple formazan crystals were formed. The MTT solution was removed, and the purple crystals were dissolved in isopropanol and the optical absorbance at 595 nm was recorded using SpectraMax iD3, Molecular Devices, San Jose, CA, USA.

ERα = details: MCF-7 cells
Description: For Western blotting, cells were lysed in NP-40 lysis buffer (1% NP-40, 50 mM Tris-HCl, pH 8.0, 150 mM NaCl, 5 mM EDTA) or 1× passive lysis buffer (Promega, Germany) for 15 min on ice. Cell debris was removed by centrifugation at 13,000 rpm for 10 min and used for SDS-polyacrylamide gel electrophoresis (PAGE) and Western blotting.
Western Blotting was carried out using standard protocols with antibodies: p53 (clone DO1), p53 (Sp5, Thermo Fisher Scientific Karlsruhe, Germany), Mdm2 (4B2, Abcam, Cambridge, UK). […] Secondary goat anti-mouse and goat anti-rabbit antibodies were purchased from DAKO (Bollschweil, Germany).

DU145 = test: Clonogenic assay (clonal expansion); assay type: cell-based; details: Homo sapiens, DU-145; Prostate Cancer (DU145), AR-; inhibition of clonal expansion
Description: as §1

PC3 = test: Clonogenic assay (clonal expansion); assay type: cell-based; details: Homo sapiens; Prostate Cancer (PC3), AR-; inhibition of clonal expansion
Description: as §1

[2] = system: ER^+ and AR^+ breast and prostate cancer cells; details: proliferation of ER^+ and AR^+ breast and prostate cancer cells, previously reported; cited from earlier work

IC50 (T47D)	IC50 (MCF-7; Homo sapiens, MCF7)	IC50 (22Rv.1; Homo sapiens, 22Rv1)	IC50 (ZR75-1; Homo sapiens, ZR-75-1)	IC50 (LNCaP; Homo sapiens)	SMILES	other results
57.1 nM	10 ± 4.3 nM	7.5 ± 3.2 nM	31.8 nM	0.1 nM	Fc1ccc(-c2cn3cc(C(F)(F)F)ccc3n2)cc1 [Compound X20046, 2-(4-Fluorophenyl)-6-(trifluoromethyl)imidazo[1,2-a]pyridine]	
					C[C@]12CC[C@@H]3c4ccc(O)cc4C[C@@H](CCCCCCCCC[S+]([O-])CCCC(F)(F)C(F)(F)F)[C@H]3[C@@H]1CC[C@@H]2O (stereo partly drawn) [fulvestrant, reference compound]	inhibition of clonal expansion (TRMCF-7 cells): slightly more efficacious than X15695; inhibition of viability [1]: comparable activities; ERα downregulation over time (ERα; 1 µM, time course): rapidly downregulated ERα level within 4 h to 8 h recovering gradually thereafter; concentration sufficient to downregulate ERα (ERα; 8 h): ≤ 1 nM
	12 nM	641 ± 246 nM			Fc1ccc(-c2cn3cc(Br)ccc3n2)cc1 [Compound X19168, 6-bromo-2-(4-fluorophenyl)imidazo[1,2-a]pyridine]	
	6 ± 2.8 nM	48.5 ± 13.3 nM	39.2 ± 24.3 nM		Cc1cc(Cl)c2nc(-c3ccccc3)cn2c1 [Compound X19728, 8-Chloro-6-methyl-2-phenylimidazo[1,2-a]pyridine]	
	14.5 nM	4.4 ± 1.6 nM		< 0.1 nM	Fc1ccccc1-c1cn2cc(C(F)(F)F)cc(Cl)c2n1 [Compound X19720, 8-Chloro-2-(2-fluorophenyl)-6-(trifluoromethyl)imidazo[1,2-a]pyridine]	
					CC/C(=C(\c1ccccc1)c1ccc(OCCN(C)C)cc1)c1ccccc1 [tamoxifen]	inhibition of clonal expansion (TRMCF-7 cells): inactive; inhibition of viability [1]: ineffective
44.7 ± 11.4 nM	7.9 ± 1.9 nM	22.5 ± 6.6 nM	10.2 ± 2.7 nM	< 0.1 nM	FC(F)(F)c1cc(Cl)c2nc(-c3ccccc3)cn2c1 [X19166/ X15696, 8-Chloro-2-phenyl-6-(trifluoromethyl)imidazo[1,2-a]pyridine]	IC50 (DU145): 3580 nM; IC50 (PC3): 11900 nM
86.1 ± 49.1 nM	3.3 ± 0.9 nM	4.4 nM	16.2 ± 4.7 nM	0.2 nM	Cc1cc(Cl)c2nc(-c3ccc(F)cc3)cn2c1 [Compound X19724, 8-Chloro-2-(4-fluorophenyl)-6-methylimidazo[1,2-a]pyridine]	
					Fc1ccc(-c2nc3cc(C(F)(F)F)ccc3s2)cc1 [Compound A4B17, reference compound]	IC50 (MCF-7): 1280 nM; IC50 (22Rv.1): 3400 nM; IC50 (ZR75-1): 110 nM; IC50 (LNCaP): 1600 nM; IC50 values [2]: in the micromolar range
